Results taken from patent US6436660B1, “Identification of novel antimicrobial agents using metabolic oxidation-reduction indicator dyes” (XOMA Technology Ltd., priority 1999, dated 2002).

Legend:
Candida albicans = experiment: Effect of antifungal compounds on fungal cells with Alamar Blue (fluorimetric metabolic oxidation-reduction indicator dye assay); type: cell-based; settings: for characteristic pattern or "fingerprint": increased metabolic oxidation-reduction activity (Alamar Blue fluorescence) relative to untreated control cells: Candida albicans 1x10^7 cells/mL, test compound two-fold dilutions from 64 μg/mL, 37° C., readings 0-60 min, best seen at 15 min (FIG. 2); for characteristic "fingerprint" with metabolic oxidation-reduction indicator dye (statement on negative controls): for fungal cells, summary statement
Excerpt: Alamar Blue™ is an indicator dye formulated to measure quantitatively the proliferation of a variety of human or animal cells, bacteria, or fungi. It consists of an oxidation-reduction (REDOX) indicator that yields colorimetric and fluorimetric changes in response to metabolic activity (electron transport activity).
The relative effect of two BPI-derived peptides, XMP.391 (SEQ ID NO: 4) and XMP.445 (SEQ ID NO: 6), and the antifungal compound amphotericin B on fungal cells with the metabolic oxidation-reduction indicator dye Alamar Blue™ [AccuMed Int'l, Westlake, Ohio] was assessed as follows.
Candida albicans were grown in 75 mL Sabouraud's dextrose broth (SDB) for 5 hours at 30° C. Cells were pelleted by centrifiguation for 5 minutes in a Sorvall RT6000B centrifuge at 3,000 rpm (1500×g) and resuspended in 15 mL of fresh SDB. A 1:10 dilution of this suspension was used for an OD570 nm detennination. One OD unit is equivalent to 1×10^7 CFU/mL. Cells were adjusted to a concentration of 2×10^7 CFU/mL.
Test compounds XMP.391, XMP.445 and Amphotericin B (AMB) were two-fold serially diluted in SDB from a concentration of 128 μg/mL in a 96-well plate. This was done in triplicate with each well containing a volume of 100 μL. An equal volume of the yeast suspension was added to each well.
Alamar Blue™ was added at 20 μL per well and the initial (t=0) fluorescence readings were performed in a Molecular Devices SpectraMax Gemini plate reader. The excitation wavelength was 544 nm and the emission wavelength was measured at 590 nm. The plate was incubated at 37° C. and additional readings at 15, 30, 45 and 60 minutes were performed. Metabolic oxidation-reduction activity is detected by an increase in fluorescence emission.

bacterial growth = settings: background statement on narrow therapeutic window; cited from earlier work
[1] = background statement on narrow therapeutic window; cited from earlier work
[2] = test system: E. coli (ATCC strain 8739); experiment: Effect of antibacterial compounds on bacteria with Alamar Blue (colorimetric OD595 assay); type: cell-based; settings: for bacteria; summary statement
Description: E. coli (ATCC strain 8739) was incubated at 37° C. in 5 mL cation-adjusted Mueller Hinton Broth (CAMHB) for 3 hours to attain log phase growth. The bacteria were pelleted in a Sorvall RT6000B centrifuge for 5 minutes at 3,000 rpm (1.500×g ) and resuspended in 5 mL of fresh CAMHB. A 1:10 dilution was performed for an OD570 nm determination. One OD unit equals 1.25×10^9 CFU/mL. The bacterial suspension was adjusted to 1×10^8 CFU/mL.
This was done in triplicate with each well containing a volume of 100 μL. An equal volume of the bacterial suspension was added to each well. […] Alamar Blue™ was added at 20 μL per well. The “Blank” contained media and Alamar Blue™ only, without cells.
OD595 nm readings were performed in a Molecular Devices plate reader. This required that samples be centrifuged to pellet bacteria and related debris which would contribute to the OD595 nm reading. 150 μL were removed from the wells at various timepoints, centrifuged (2 minutes, 2,000 rpm) and 50 μL of supernatant was carefully transferred to a fresh 96-well plate for the reading. Timepoints were read at 0, 30, 60, 90 and 120 minutes. Metabolic oxidation-reduction activity is detected by an increase in OD in this colorimetric assay.

Row | Compound | characteristic pattern or "fingerprint": increased metabolic oxidation-reduction activity (Alamar Blue fluorescence) relative to untreated control cells (Candida albicans) | characteristic "fingerprint" with metabolic oxidation-reduction indicator dye (statement on negative controls) (Candida albicans) | other results
1 | C[C@@H]1[C@H](O)[C@@H](C)/C=C/C=C/C=C/C=C/C=C/C=C/C=C/[C@H](O[C@@H]2O[C@H](C)[C@@H](O)[C@H](N)[C@@H]2O)C[C@@H]2O[C@](O)(C[C@@H](O)C[C@@H](O)[C@H](O)CC[C@@H](O)C[C@@H](O)CC(=O)O[C@H]1C)C[C@H](O)[C@H]2C(=O)O [amphotericin B] | did not show the “fingerprint.” | do not exhibit the characteristic “fingerprint,” | 
2 | OC(Cn1cncn1)(Cn1cncn1)c1ccc(F)cc1F [fluconazole] |  | do not exhibit the characteristic “fingerprint,” | 
3 | XMP.391: BPI-derived peptide, domain III-derived, SEQ ID NO: 4; structure described in Table 1 of U.S. Pat. No. 5,858,974 (KVGWLIQLFHKK) | known to produce this characteristic pattern |  | 
4 | antimycin |  | do not exhibit the characteristic “fingerprint,” | 
5 | gentamicin |  |  | concentration required to produce a therapeutic effect (bacterial growth): 8 µg/mL; concentration that produces a toxic effect [1]: 12 µg/mL
6 | polymyxin |  |  | characteristic "fingerprint" with metabolic oxidation-reduction indicator dye (statement on negative controls) [2]: do not exhibit the characteristic “fingerprint,”
